Patent publication US11266609B2, “Bacitracin and/or daptomycin combined with cannabidiol for treatment of bacterial infections” (priority 2017, dated 2022)
≈ marks a conversion by molar mass, not a printed value. Where two headings read alike, the source gives them in different places. Positions of bridges follow the written chain, without caps; N, C: chain ends. Non-standard residues stand in square brackets, D forms with d. Residues, ends and D or L forms follow the SMILES beside them. *: point of attachment. Ileψ(thiazoline)Cys = CC[C@H](C)[C@H](N)C1=N[C@H](C(=O)*)CS1; dOrn = NCCC[C@@H](N)C(=O)O

Tests used:
MRSA USA300 FPR3757 = test: microbe, parasite or virus in culture; format: cell-based, Staphylococcus aureus; conditions: for FIC Index: combination of cannabidiol with the respective antibiotic, synergy <= 0.5, no interaction 0.5-4.0, antagonism > 4
Description: (§1) The resistant bacterium MRSA USA300 FPR3757 (USA300) was the main used bacterium throughout this study. MRSA was grown in Brain Heart Infusion (BHI) or Müeller Hinton (MH) media on plate or in liquid cultures with agitation at 37° C.
(§2) An ON culture was made by inoculating a bacterial colony in either 5 mL of MH or BHI and incubating at 37° C. with agitation. The antibiotic of interest was added to a row of a sterile 96-well plate (VWR) and a serial dilution was made down the rows containing 50 μL of MH or BHI media in each well, resulting in 2-fold dilution for each row. The ON culture was diluted to OD625 at approximately 1.0 followed by a 1:100 dilution to approximately OD625=0.01 of which 50 μL was added to each well to a final volume of 100 μL. The 96-well plate was incubated at 37° C. with shaking at 225 rpm for approximately 18-24 hours. Presence and absence of growth were determined by visual appearance.
B) The other screen was based on fractional inhibitory concentration (FIC) index.

MRSA USA300 = test: Micro dilution growth experiments using oCelloScope, CBD combined with antibiotics (FIG. 1); format: cell-based, Staphylococcus aureus; conditions: combination with CBD 1-2 μg/mL; bacitracin 16, daptomycin 4, tetracycline 16, fosfomycin 16, dicloxacillin 0.0625, chlorhexidine 0.25, vancomycin 0.5 μg/mL (FIG. 1)
Description: BCA: Background corrected absorption. ? Growth control, ? CBD, -▴- Antibiotic, ? Combination.
as §1
An ON culture was made by inoculating a bacterial colony in either 5 mL of MH or BHI at incubated at 37° C. with agitation. 25 μL of specific concentrations of the antibiotic and cannabinoid to be tested was added to the desired wells of a sterile 96-well plate (Thermo Scientific). 25 μL of MH or BHI media was added to the wells only containing one of the two compounds tested. The bacterial ON culture was diluted to a final OD600 nm of 0.005 and 50 μL was dispensed into each well to a final volume of 100 μL. To decrease evaporation, 2 mL of pre-heated water was added to the corners of the 96-well plate containing cavities. The plate was placed in the oCelloScope inside an incubator at 37° C. Illumination level and focus was adjusted for each well and the growth was measured for approximately 25 hours. Measurements were performed every half an hour for the first half of the time and every hour for the last half using the UniExplorer software. Data retrieved was given in Background corrected absorption (BCA), formerly known as pixel histogram summation (PHS), an algorithm enabling determination of bacterial growth kinetics resulting from images taken with the oCelloScope camera.
A) A screen was performed using the Philips oCelloScope enabling measurements of bacterial growth in presence or absence of either cannabidiol alone or in combination with an antibiotic or antimicrobial, through a 3D scanning system in 96-well plates.

E. faecalis (13-327129) = test: microbe, parasite or virus in culture; format: cell-based, Enterococcus faecalis
Description: (§3) Additional bacteria Enterococcus faecalis (13-327129), Enterococcus faecalis (16-7418), Methicillin-resistant Staphylococcus epidermidis (933010 3F-16 b4), Listeria monocytogenes EGD, Pseudomonas aeruginosa (PA01), Salmonella typhimurium (14028), Klepsiella pneumoniae (CAS55), Vibrio cholerae (A1522), and Escherichia coli (UTI89) were either grown in BHI or Lysogeny broth (LB) media.
as §2, with “appearance. FIC index was calculated as follows (Alam M T et al. Antibacterial activity of different organic extracts of Achyranthes aspera and Cassia alata. J Sci Res. 2009).” for “appearance.”
(§4) To study the bacterial spectrum of the combination, CBD and bacitracin growth measurements of other Gram-positive bacteria tests on Enterococcus faecalis, an MRSE strain and a strain of Listeria monocytogenes were performed as described in Example 1.
(§5) The MIC for bacitracin and CBD and the respective FIC values are visualized in table 2 for the Gram-positive bacteria and are calculated based on two biological replicates.

E. faecalis (16-7418) = test: microbe, parasite or virus in culture; format: cell-based, Enterococcus faecalis
Description: as §3
as §2, with “appearance. FIC index was calculated as follows (Alam M T et al. Antibacterial activity of different organic extracts of Achyranthes aspera and Cassia alata. J Sci Res. 2009).” for “appearance.”
as §4, §5

MRSE (933010 3F-16 b4) = test: microbe, parasite or virus in culture; format: cell-based, Methicillin-resistant Staphylococcus epidermidis
Description: as §3
as §2, with “appearance. FIC index was calculated as follows (Alam M T et al. Antibacterial activity of different organic extracts of Achyranthes aspera and Cassia alata. J Sci Res. 2009).” for “appearance.”
as §4, §5

L. monocytogenes EGD = test: microbe, parasite or virus in culture; format: cell-based, Listeria monocytogenes
Description: as §3
as §2, with “appearance. FIC index was calculated as follows (Alam M T et al. Antibacterial activity of different organic extracts of Achyranthes aspera and Cassia alata. J Sci Res. 2009).” for “appearance.”
as §4, §5

Vibrio cholerae (A1522) = test: microbe, parasite or virus in culture; format: cell-based
Description: as §3
as §2, with “The 96-well plate was incubated at 37° C. with shaking at 225 rpm for approximately 18-24 hours.” left out, “appearance. FIC index was calculated as follows (Alam M T et al. Antibacterial activity of different organic extracts of Achyranthes aspera and Cassia alata. J Sci Res. 2009).” for “appearance.”
To further assess the spectrum of use for the combination of CBD and bacitracin, growth of Gram-negative bacteria upon treatment was measured as well as described in Example 1. […]

Escherichia coli (UTI89) = test: MIC, Gram-negative bacteria; format: cell-based; conditions: above tested concentrations
Description: as §3
as §2, with “appearance. FIC index was calculated as follows (Alam M T et al. Antibacterial activity of different organic extracts of Achyranthes aspera and Cassia alata. J Sci Res. 2009).” for “appearance.”
(§6) To further assess the spectrum of use for the combination of CBD and bacitracin, growth of Gram-negative bacteria upon treatment was measured as well as described in Example 1.
(§7) The Gram-negative bacteria tested were strains of Pseudomonas aeruginosa, Salmonella typhimurium, Klepsiella pneumoniae, Vibrio cholera, and Escherichia coli. MIC for CBD and bacitracin in the Gram-negative bacteria are visualized in table 3, and were both above tested concentrations.

[1] = test system: Klepsiella pneumoniae (CAS55); test: MIC, Gram-negative bacteria; format: cell-based; conditions: above tested concentrations
Description: as §3
as §2, with “appearance. FIC index was calculated as follows (Alam M T et al. Antibacterial activity of different organic extracts of Achyranthes aspera and Cassia alata. J Sci Res. 2009).” for “appearance.”
as §6, §7

[2] = test system: Pseudomonas aeruginosa (PA01); test: MIC, Gram-negative bacteria; format: cell-based; conditions: above tested concentrations
Description: as §3
as §2, with “appearance. FIC index was calculated as follows (Alam M T et al. Antibacterial activity of different organic extracts of Achyranthes aspera and Cassia alata. J Sci Res. 2009).” for “appearance.”
as §6, §7

[3] = test system: Salmonella typhimurium (14028); test: MIC, Gram-negative bacteria; format: cell-based; conditions: Salmonella enterica, above tested concentrations
Description: as §3
as §2, with “appearance. FIC index was calculated as follows (Alam M T et al. Antibacterial activity of different organic extracts of Achyranthes aspera and Cassia alata. J Sci Res. 2009).” for “appearance.”
as §6, §7

[4] = MRSA USA300 FPR3757, Table 2, two biological replicates
[5] = USA300, Table 4, unit not given

**Q.** What does the source list for CC[C@H](C)[C@H](N)C1=N[C@H](C(=O)N[C@@H](CC(C)C)C(=O)N[C@H](CCC(=O)O)C(=O)N[C@H](C(=O)N[C@H]2CCCCNC(=O)[C@H](CC(N)=O)NC(=O)[C@@H](CC(=O)O)NC(=O)[C@H](Cc3cnc[nH]3)NC(=O)[C@@H](Cc3ccccc3)NC(=O)[C@H]([C@@H](C)CC)NC(=O)[C@@H](CCCN)NC2=O)[C@@H](C)CC)CS1 [Bacitracin] ({Ileψ(thiazoline)Cys}-L[dE]IK[dOrn]I[dF]H[dD]N; lactam 4-C)?
**A.** MIC (MRSA USA300 FPR3757; [4]): 64 µg/mL (≈ 45 µM); Fold decreased bacitracin (MRSA USA300 FPR3757; MRSA USA300 FPR3757, bacitracin MIC combined with CBD compared to bacitracin alone): 16-32 fold; MIC (MRSA USA300 FPR3757; WT USA300): 64 µg/mL (≈ 45 µM); FIC Index (MRSA USA300 FPR3757; WT USA300): 0.30; synergistic potential in growth curves (MRSA USA300): synergistic potential; MIC (E. faecalis (13-327129); 13-327129): 128 µg/mL; Fold decreased bacitracin (E. faecalis (13-327129); E. faecalis (13-327129), bacitracin MIC combined with CBD compared to bacitracin alone): 16 fold; MIC (E. faecalis (16-7418); 16-7418): 128 µg/mL; MIC (MRSE (933010 3F-16 b4); MRSE (933010 3F-16 b4)): 32 µg/mL; Fold decreased bacitracin (MRSE (933010 3F-16 b4); MRSE (933010 3F-16 b4), bacitracin MIC combined with CBD compared to bacitracin alone): 64 fold; MIC (L. monocytogenes EGD; EGD): 512 µg/mL; Fold decreased bacitracin (L. monocytogenes EGD; L. monocytogenes EGD, bacitracin MIC combined with CBD compared to bacitracin alone): 8-16 fold; MIC (Vibrio cholerae (A1522); Vibrio cholerae (A1522), above tested concentrations): >1024 µg/mL

**Q.** With CCCCCc1cc(O)c2c(c1)OC(C)(CCC=C(C)C)C=C2 (centres unmarked) [Cannabichromene (CBC), Cannabichromene] as the molecule, how does the “FIC index (with bacitracin)” value (MRSA USA300 FPR3757; USA300) read?
**A.** 0.63

**Q.** What about the “FIC index (with daptomycin)” value (MRSA USA300 FPR3757; USA300) of the same molecule?
**A.** 0.63

**Q.** What about the MIC (MRSA USA300 FPR3757; [5]) of the same molecule?
**A.** 4

**Q.** Which MIC (MRSA USA300 FPR3757; [4]) does the source give for C=C(C)[C@@H]1CCC(C)=C[C@H]1c1c(O)cc(CCCCC)cc1O [Cannabidiol (CBD), Cannabidiol] here?
**A.** 4 µg/mL (≈ 12.7 µM)

**Q.** And the MIC (MRSA USA300 FPR3757; Staphylococcus aureus)?
**A.** 4 µg/mL (≈ 12.7 µM)

**Q.** What about the MIC (E. faecalis (13-327129); Enterococcus faecalis, E. faecalis (13-327129), read-out: MIC) of the same molecule?
**A.** 16 µg/mL

**Q.** What about the MIC (E. faecalis (16-7418); Enterococcus faecalis, E. faecalis (16-7418), read-out: MIC) of the same molecule?
**A.** 16 µg/mL

**Q.** And the MIC (MRSE (933010 3F-16 b4); Staphylococcus epidermidis, MRSE)?
**A.** 4 µg/mL

**Q.** And the MIC (L. monocytogenes EGD; Listeria monocytogenes, L. monocytogenes EGD, read-out: MIC)?
**A.** 4 µg/mL

**Q.** What about the MIC (Escherichia coli (UTI89)) of the same molecule?
**A.** > 128 µg/mL

**Q.** And the MIC [1]?
**A.** > 128 µg/mL

**Q.** What about the MIC [2] of the same molecule?
**A.** > 128 µg/mL

**Q.** And the MIC [3]?
**A.** > 128 µg/mL

**Q.** And the MIC (Vibrio cholerae (A1522); Vibrio cholerae)?
**A.** > 128 µg/mL

**Q.** With CCCCCc1cc(O)c(C/C=C(\C)CCC=C(C)C)c(O)c1 [Cannabigerol (CBG), Cannabigerol] as the molecule, how does the “FIC index (with bacitracin)” value (MRSA USA300 FPR3757; USA300) read?
**A.** 0.88

**Q.** What about the “FIC index (with daptomycin)” value (MRSA USA300 FPR3757; USA300) of the same molecule?
**A.** 1.0

**Q.** And the MIC (MRSA USA300 FPR3757; [5])?
**A.** 4

**Q.** Which results are given for CO/N=C(\C(=O)N[C@@H]1C(=O)N2C(C(=O)O)=C(CSc3nc(=O)c(=O)[nH]n3C)CS[C@H]12)c1csc(N)n1 [Ceftriaxone]?
**A.** MIC (MRSA USA300 FPR3757; Staphylococcus aureus): 32 µg/mL (≈ 57.7 µM); FIC Index (MRSA USA300 FPR3757; WT USA300): 1.5

**Q.** For [H]/N=C(\N/C(=N/[H])NCCCCCCNC(=N)NC(=N)Nc1ccc(Cl)cc1)Nc1ccc(Cl)cc1 [Chlorhexidine], which MIC (MRSA USA300 FPR3757; Staphylococcus aureus) is on record?
**A.** 1 to 2 µg/mL (≈ 1.98 to 3.96 µM)

**Q.** What about the “FIC Index” value (MRSA USA300 FPR3757; WT USA300) of the same molecule?
**A.** 1

**Q.** What about the “synergistic potential in growth curves” value (MRSA USA300) of the same molecule?
**A.** no synergistic potential
